Test results taken from the OPERA property sets (Mansouri et al. 2018).

Compound | logP
COc1ccc([C@@H]2CC(=O)c3c(O)cc(O)cc3O2)cc1O | 2.6
O=C1C[C@@H](c2ccc(O)c(O)c2)Oc2cc(O)ccc21 | 1.94
O=C1CC(c2ccc(O)c(O)c2)Oc2cccc(O)c21 (configuration not stated) | 2.81
O=C1c2ccc(O)cc2OC(c2ccc(O)c(O)c2)C1O (configuration not stated) | 0.87
C[C@@H]1O[C@@H](O[C@H]2[C@H](Oc3cc(O)c4c(c3)O[C@H](c3ccc(O)cc3)CC4=O)O[C@H](CO)[C@@H](O)[C@@H]2O)[C@H](O)[C@H](O)[C@H]1O | -0.44
O=C1C[C@@H](c2ccc(O)cc2)Oc2cc(O)cc(O)c21 | 2.52
Oc1cc(O)c2c(c1)O[C@H](c1ccc(O)c(O)c1)[C@@H](O)C2 | 0.51
O=C1CC(c2ccc(O)c(O)c2)Oc2cc(O)cc(O)c21 (configuration not stated) | 2.02
O=c1cc(-c2ccc(O)c(O)c2)oc2cc(O)cc(O)c12 | 2.53
COc1ccc(-c2cc(=O)c3c(O)cc(O[C@@H]4O[C@H](CO[C@@H]5O[C@@H](C)[C@H](O)[C@@H](O)[C@H]5O)[C@@H](O)[C@H](O)[C@H]4O)cc3o2)cc1O | 0.14
O=C1c2c(O)cc(O)cc2O[C@H](c2ccc(O)c(O)c2)[C@H]1O | 0.95

Continued, values first:

logP | Compound
4.3 | O=c1cc(-c2ccccc2)oc2cccc(O)c12
3.1 | COc1ccc(-c2cc(=O)c3c(O)cc(O)cc3o2)cc1O
3.52 | O=c1cc(-c2ccccc2)oc2cc(O)cc(O)c12
3.31 | O=c1cc(-c2ccc(O)c(O)c2)oc2cccc(O)c12
3.02 | O=c1cc(-c2ccc(O)cc2)oc2cc(O)cc(O)c12
2.61 | O=C1CC(c2cccc(O)c2)Oc2cc(O)cc(O)c21 (configuration not stated)
